Source: patent US4847297A, “Use of penicillamine for treating immune damaging illnesses” (Degussa Aktiengesellschaft, priority 1985, dated 1989)

Columns and labels:
[1] = tested on: HTLV-III virus (LAV-I virus); test: inhibition of HTLV-III (LAV-I) virus replication in cell culture; format: cell-based, HTLV-III virus in H9 cells (human T-cell line); details: in vitro; for inhibition at 20 µg/mL / inhibition at 40 µg/mL: Human immunodeficiency virus 1, H9, 96 h, cell culture; for inhibition at 20 µg/mL: 20 μg/ml, read-out: prevention of replication of HTLV-III virus (LAV-I virus); for inhibition at 40 µg/mL: 40 μg/ml, read-out: effectiveness in vitro (prevention of virus replication)
Experimental: At a concentrate of 20 μg/ml the replication of HTLV-III--virus (LAV-I-virus) is prevented in a cell culture with L-penicillamine to an extent of about 95% and with D-penicillamine to about 80%. At a concentration of 40 μg/ml, the effectiveness of both L-penicillamine and D-penicillamine in vitro is nearly 100%.
(§1) HTLV-III virus infection of H9 cells (human T-cell line of a leukemia patient of the National Cancer Institute, Bethesda, Md., USA); the H9 cells were trreated with Polybrene (Hexadimethrine bromide) (2 μg/ml) for 30 minutes at 37° C., subsequently the Polybrene was washed out and the cells were infected with 2×10^8 HTLV virus particles per 4×10^5 H9 cells. Before the infection, the virus was incubated with the material at various concentrations for 45 minutes at 37° C. For controls, the virus was incubated under the same experimental conditions but without addition of the material. The cell cultures were analyzed on the 4th day after infection as follows:
(§2) Immunofluorescence analysis: The effect of D- and L-penicillamine on the propagation of the HTLV-III virus in H9 cells was determined by measuring the proteins p15 and p24 (molecular weight 15,000 respectively 24,000) present in HTLV-III. The immunofluorescence analysis was carried out on fixed methanol:acetone (1:1) cells using monoclonal antibodies (National Cancer Institute USA) against HTLV-III p15 and p24. The infected cells treated with or without penicillamine were secured on toxoplasmosis glass slides. After 30 minutes treatment with methanol-acetone (1:1) at room temperature, the glass slides were stored in closed plastic containers at -20° C. until use. The monoclonal antibodies were added to duplicate wells, incubated at room temperature in a moist chamber for 1 hour and washed with PBS (phosphate buffered saline) solution containing 0.25% Triton X-100 for two hours. The cells were then exposed to goatantimouse IgG (Capell Labs.) bound with fluorescein (FITC) for 1 hour and washed with PBS buffer solution containing 0.25% Triton X-100 overnight. The glass sides were mounted with 50% glycerine and the cell fluorescence observed with a Zeiss fluorescence microscope.

[2] = tested on: HTLV-III virus (viral protein p24); test: propagation of HTLV-III in H9 cells, formation of viral protein p24, immunofluorescence with monoclonal antibodies; format: cell-based, HTLV-III virus in H9 cells (human T-cell line); details: for prevention of the formation of p24 (in words): FIG. 2, same manner as with p15; for IC100: Human immunodeficiency virus 1, H9, 96 h, p24, FIG. 2, 4th day after infection, read-out: concentration needed for complete inactivation of the viral replication
Experimental: FIG. 2 is a similar graph where the determination was by the formation of viral protein p24.
as §1, §2
(§3) The effect of D- and L-penicillamine on the propagation of HTLV-III in H9 cells was determined through the function of the material concentration by the formation of the viral proteins p15 (FIG. 1) and p24 (FIG. 2) in an immunofluorescence assay with monoclonal antibodies.

[3] = tested on: HTLV-III infected H9 cells; test: growth of HTLV-III infected H9 cells; format: cell-based, human; details: for Number of cells/ml × 10^-6, infected / effect on number of infected H9 cells (in words): 4 days after infection; for Number of cells/ml × 10^-6, infected: control 0.18; for effect on number of infected H9 cells (in words): increasing concentration; for protective effect on T-cells: infected H9 cells
Experimental: as §1
(§4) In order to show the selectivity of the effect on the replication of HTLV-III virus, the effect of D- and L-penicillamine on the growth of H9 cells can be examined.
(§5) The number of cells was determined 4 days after the experiment began.
4 days after the infection with the HTLV-III virus the number of H9 cells is reduced from 1.24×10^6 to 0.18×10^6.

[4] = tested on: HTLV-III virus (viral protein p15); test: propagation of HTLV-III in H9 cells, formation of viral protein p15, immunofluorescence with monoclonal antibodies; format: cell-based, HTLV-III virus in H9 cells (human T-cell line); details: for prevention of the formation of p15 virus protein (in words): FIG. 1, concentration dependence; for inhibition at 40 µg/mL: Human immunodeficiency virus 1, H9, 40 μg/ml, 4th day after infection
Experimental: FIG. 1 is a graph of the effect of D- and L-penicillamine on the propagation of HTLV-III in H9 cells through the function of the concentration determined by the formation of the viral protein 15; and
as §1, §2, §3

in vitro = format: cell-based, human; details: human, h9 cells
Experimental: as §1, §4, §5

[5] = in vivo, cited from earlier work
[6] = tested on: plasma proteins (preponderantly albumen); details: cited from earlier work
non-infected H9 cells = test: in vitro; format: cell-based, human
Experimental: as §1, §4, §5

SMILES	inhibition at 20 µg/mL [1] [%]	inhibition at 40 µg/mL [1] [%]	prevention of the formation of p24 (in words) [2]	IC100 [2] [µg/mL]	Number of cells/ml × 10^-6, infected ([3]; 30 μg/ml) [cells/ml × 10^-6]	Number of cells/ml × 10^-6, infected ([3]; 40 μg/ml) [cells/ml × 10^-6]	Number of cells/ml × 10^-6, infected ([3]; 100 μg/ml) [cells/ml × 10^-6]	effect on number of infected H9 cells (in words) [3]	protective effect on T-cells [3]	prevention of the formation of p15 virus protein (in words) [4]	inhibition at 40 µg/mL [4] [%]	further results
CC(C)(S)[C@H](N)C(=O)O [L-penicillamine]	~95	~100	prevent the formation of p24	40	0.35	0.38	0.98	considerable increase of the cell number	protective effect on T-cells	concentration dependent prevention of the formation of p15 virus protein	98.5 to 99.4	effectiveness at lower concentration, L- versus D-penicillamine (p15) ([4]; lower concentration, FIG. 1): more effective than D-penicillamine
CC(C)(S)[C@@H](N)C(=O)O [D-penicillamine]	~80	~100	prevent the formation of p24	40	0.27	0.35	0.8	considerable increase of the cell number	protective effect on T-cells	concentration dependent prevention of the formation of p15 virus protein	98.5 to 99.4	MCC at 96 h (in vitro): > 100 µg/mL; resorption after oral administration ([5]; po): about 60%; distribution over the entire organism [5]: distributed relatively quickly over the entire organism; elimination in unchanged form [5]: up to 10%; route and form of elimination [5]: predominantly via the kidneys, the greatest part as disulfide; binding to plasma proteins [6]: bound to plasma proteins (preponderantly albumen); free (not protein bound) concentration with increasing dosage [6]: obviously increases with increasing dosage
CC(C)(S)[C@H](N)C(=O)O [penicillamine]												inhibition of virus replication (in words) [1]: can greatly inhibit the virus replication; toxicity to the normal cell growth (non-infected H9 cells): shows no toxicity to the normal cell growth
